Tests used:
Experiment in all cases: Kinase Profiling (KINOMEscan)
Assay type in all cases: binding
[1] = biological target: 456 kinases (of these 395 non-mutant kinases) (Homo sapiens, UniProt O00238); conditions: BMPR1B; 10 μM
[2] = biological target: 456 kinases (of these 395 non-mutant kinases) (Homo sapiens, UniProt O14578); conditions: CIT; 10 μM
[3] = biological target: 456 kinases (of these 395 non-mutant kinases) (Homo sapiens, UniProt O75747); conditions: PIK3C2G; 10 μM
[4] = biological target: 456 kinases (of these 395 non-mutant kinases) (Homo sapiens, UniProt O94768); conditions: DRAK2; 10 μM
[5] = biological target: 456 kinases (of these 395 non-mutant kinases) (Homo sapiens, UniProt O94806); conditions: PRKD3; 10 μM
[6] = biological target: 456 kinases (of these 395 non-mutant kinases) (Homo sapiens, UniProt P00519); conditions: 10 μM
[7] = biological target: 456 kinases (of these 395 non-mutant kinases) (Homo sapiens, UniProt P00533, G719C); conditions: EGFR(G719C); 10 μM
[8] = biological target: 456 kinases (of these 395 non-mutant kinases) (Homo sapiens, UniProt P06241); conditions: FYN; 10 μM
[9] = biological target: 456 kinases (of these 395 non-mutant kinases) (Homo sapiens, UniProt P08069); conditions: IGF1R; 10 μM
[10] = biological target: 456 kinases (of these 395 non-mutant kinases) (Homo sapiens, UniProt P20794); conditions: MAK; 10 μM
[11] = biological target: 456 kinases (of these 395 non-mutant kinases) (Homo sapiens, UniProt P21709); conditions: EPHA1; 10 μM
[12] = biological target: 456 kinases (of these 395 non-mutant kinases) (Homo sapiens, UniProt P31749); conditions: AKT1; 10 μM
[13] = biological target: 456 kinases (of these 395 non-mutant kinases) (Homo sapiens, UniProt P31751); conditions: AKT2; 10 μM
[14] = biological target: 456 kinases (of these 395 non-mutant kinases) (Homo sapiens, UniProt P36507); conditions: MEK2; 10 μM
[15] = biological target: 456 kinases (of these 395 non-mutant kinases) (Homo sapiens, UniProt P36894); conditions: BMPR1A; 10 μM
[16] = biological target: 456 kinases (of these 395 non-mutant kinases) (Homo sapiens, UniProt P51813); conditions: BMX; 10 μM
[17] = biological target: 456 kinases (of these 395 non-mutant kinases) (Homo sapiens, UniProt P52333); conditions: JAK3(JH1domain-catalytic); 10 μM
[18] = biological target: 456 kinases (of these 395 non-mutant kinases) (Homo sapiens, UniProt P52564); conditions: MEK6; 10 μM
[19] = biological target: 456 kinases (of these 395 non-mutant kinases) (Homo sapiens, UniProt Q00537); conditions: PCTK2; 10 μM
[20] = biological target: 456 kinases (of these 395 non-mutant kinases) (Homo sapiens, UniProt Q02763); conditions: TIE2; 10 μM
[21] = biological target: 456 kinases (of these 395 non-mutant kinases) (Homo sapiens, UniProt Q04759); conditions: PRKCQ; 10 μM
[22] = biological target: 456 kinases (of these 395 non-mutant kinases) (Homo sapiens, UniProt Q05397); conditions: FAK; 10 μM
[23] = biological target: 456 kinases (of these 395 non-mutant kinases) (Homo sapiens, UniProt Q13043); conditions: MST1; 10 μM
[24] = biological target: 456 kinases (of these 395 non-mutant kinases) (Homo sapiens, UniProt Q13882); conditions: BRK; 10 μM
[25] = biological target: 456 kinases (of these 395 non-mutant kinases) (Homo sapiens, UniProt Q15569); conditions: TESK1; 10 μM
[26] = biological target: 456 kinases (of these 395 non-mutant kinases) (Homo sapiens, UniProt Q15835); conditions: GRK1; 10 μM
[27] = biological target: 456 kinases (of these 395 non-mutant kinases) (Homo sapiens, UniProt Q86YV6); conditions: MYLK4; 10 μM
[28] = biological target: 456 kinases (of these 395 non-mutant kinases) (Homo sapiens, UniProt Q8TF76); conditions: HASPIN; 10 μM
[29] = biological target: 456 kinases (of these 395 non-mutant kinases) (Homo sapiens, UniProt Q92772); conditions: CDKL2; 10 μM
[30] = biological target: 456 kinases (of these 395 non-mutant kinases) (Homo sapiens, UniProt Q96NX5); conditions: CAMK1G; 10 μM
[31] = biological target: 456 kinases (of these 395 non-mutant kinases) (Homo sapiens, UniProt Q9BUB5); conditions: MKNK1; 10 μM
[32] = biological target: 456 kinases (of these 395 non-mutant kinases) (Homo sapiens, UniProt Q9BX84); conditions: TRPM6; 10 μM

456 kinases (of these 395 non-mutant kinases) (Homo sapiens, UniProt O00238), sequence (O00238 14-502 limits assumed, change not shown): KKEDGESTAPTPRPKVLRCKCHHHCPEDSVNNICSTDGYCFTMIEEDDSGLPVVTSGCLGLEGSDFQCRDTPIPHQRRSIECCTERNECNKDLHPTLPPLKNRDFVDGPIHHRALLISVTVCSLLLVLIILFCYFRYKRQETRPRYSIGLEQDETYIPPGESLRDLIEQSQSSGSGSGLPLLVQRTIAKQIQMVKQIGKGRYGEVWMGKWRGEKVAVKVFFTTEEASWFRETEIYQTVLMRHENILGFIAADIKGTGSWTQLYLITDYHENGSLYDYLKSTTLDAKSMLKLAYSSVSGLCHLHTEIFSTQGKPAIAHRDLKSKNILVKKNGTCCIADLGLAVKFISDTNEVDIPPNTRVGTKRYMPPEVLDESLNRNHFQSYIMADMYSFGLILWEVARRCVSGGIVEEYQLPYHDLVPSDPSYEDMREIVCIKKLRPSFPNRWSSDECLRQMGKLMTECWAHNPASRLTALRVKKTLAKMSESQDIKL
456 kinases (of these 395 non-mutant kinases) (Homo sapiens, UniProt P21709), sequence (P21709 26-976 limits assumed, change not shown): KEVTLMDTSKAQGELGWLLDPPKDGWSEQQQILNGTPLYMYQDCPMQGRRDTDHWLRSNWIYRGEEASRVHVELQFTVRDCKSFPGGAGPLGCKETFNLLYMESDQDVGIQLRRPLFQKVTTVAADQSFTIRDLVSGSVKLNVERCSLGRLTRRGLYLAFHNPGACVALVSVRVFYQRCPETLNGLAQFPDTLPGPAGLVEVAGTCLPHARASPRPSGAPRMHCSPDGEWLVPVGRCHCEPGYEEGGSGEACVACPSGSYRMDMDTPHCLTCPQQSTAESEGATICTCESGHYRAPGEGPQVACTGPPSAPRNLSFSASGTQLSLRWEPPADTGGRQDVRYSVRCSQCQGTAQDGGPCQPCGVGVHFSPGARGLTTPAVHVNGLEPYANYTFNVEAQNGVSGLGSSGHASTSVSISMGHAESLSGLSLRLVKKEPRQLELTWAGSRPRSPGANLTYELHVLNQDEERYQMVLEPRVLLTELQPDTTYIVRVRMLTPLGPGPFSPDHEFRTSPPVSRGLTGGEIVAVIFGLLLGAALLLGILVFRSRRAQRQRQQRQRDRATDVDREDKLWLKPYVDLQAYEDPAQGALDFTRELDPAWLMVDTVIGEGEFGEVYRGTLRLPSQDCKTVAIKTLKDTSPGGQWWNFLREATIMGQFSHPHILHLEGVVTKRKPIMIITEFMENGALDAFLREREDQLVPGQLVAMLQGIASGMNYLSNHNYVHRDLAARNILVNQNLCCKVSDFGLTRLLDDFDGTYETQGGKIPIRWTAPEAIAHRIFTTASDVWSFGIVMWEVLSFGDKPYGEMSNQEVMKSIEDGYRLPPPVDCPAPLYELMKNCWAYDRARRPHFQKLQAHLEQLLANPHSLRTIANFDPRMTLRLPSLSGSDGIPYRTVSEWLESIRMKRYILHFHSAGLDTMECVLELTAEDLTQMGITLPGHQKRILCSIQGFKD
456 kinases (of these 395 non-mutant kinases) (Homo sapiens, UniProt P06241), sequence (P06241 2-537 limits assumed, change not shown): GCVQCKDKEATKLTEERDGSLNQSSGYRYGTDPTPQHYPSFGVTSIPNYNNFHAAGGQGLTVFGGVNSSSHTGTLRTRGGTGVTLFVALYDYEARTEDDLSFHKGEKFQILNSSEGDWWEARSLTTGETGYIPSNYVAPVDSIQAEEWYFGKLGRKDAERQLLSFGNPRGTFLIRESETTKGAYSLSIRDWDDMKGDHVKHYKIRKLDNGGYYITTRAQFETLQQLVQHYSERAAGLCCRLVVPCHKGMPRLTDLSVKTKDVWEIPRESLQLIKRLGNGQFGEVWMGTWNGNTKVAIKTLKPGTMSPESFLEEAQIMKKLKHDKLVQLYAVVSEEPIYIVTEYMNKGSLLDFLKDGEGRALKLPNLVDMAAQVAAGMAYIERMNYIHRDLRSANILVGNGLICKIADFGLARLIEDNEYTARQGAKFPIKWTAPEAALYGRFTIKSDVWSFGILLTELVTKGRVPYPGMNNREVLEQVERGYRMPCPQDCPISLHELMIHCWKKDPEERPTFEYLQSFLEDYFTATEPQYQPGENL
456 kinases (of these 395 non-mutant kinases) (Homo sapiens, UniProt Q02763), sequence (Q02763 23-1124 limits assumed, change not shown): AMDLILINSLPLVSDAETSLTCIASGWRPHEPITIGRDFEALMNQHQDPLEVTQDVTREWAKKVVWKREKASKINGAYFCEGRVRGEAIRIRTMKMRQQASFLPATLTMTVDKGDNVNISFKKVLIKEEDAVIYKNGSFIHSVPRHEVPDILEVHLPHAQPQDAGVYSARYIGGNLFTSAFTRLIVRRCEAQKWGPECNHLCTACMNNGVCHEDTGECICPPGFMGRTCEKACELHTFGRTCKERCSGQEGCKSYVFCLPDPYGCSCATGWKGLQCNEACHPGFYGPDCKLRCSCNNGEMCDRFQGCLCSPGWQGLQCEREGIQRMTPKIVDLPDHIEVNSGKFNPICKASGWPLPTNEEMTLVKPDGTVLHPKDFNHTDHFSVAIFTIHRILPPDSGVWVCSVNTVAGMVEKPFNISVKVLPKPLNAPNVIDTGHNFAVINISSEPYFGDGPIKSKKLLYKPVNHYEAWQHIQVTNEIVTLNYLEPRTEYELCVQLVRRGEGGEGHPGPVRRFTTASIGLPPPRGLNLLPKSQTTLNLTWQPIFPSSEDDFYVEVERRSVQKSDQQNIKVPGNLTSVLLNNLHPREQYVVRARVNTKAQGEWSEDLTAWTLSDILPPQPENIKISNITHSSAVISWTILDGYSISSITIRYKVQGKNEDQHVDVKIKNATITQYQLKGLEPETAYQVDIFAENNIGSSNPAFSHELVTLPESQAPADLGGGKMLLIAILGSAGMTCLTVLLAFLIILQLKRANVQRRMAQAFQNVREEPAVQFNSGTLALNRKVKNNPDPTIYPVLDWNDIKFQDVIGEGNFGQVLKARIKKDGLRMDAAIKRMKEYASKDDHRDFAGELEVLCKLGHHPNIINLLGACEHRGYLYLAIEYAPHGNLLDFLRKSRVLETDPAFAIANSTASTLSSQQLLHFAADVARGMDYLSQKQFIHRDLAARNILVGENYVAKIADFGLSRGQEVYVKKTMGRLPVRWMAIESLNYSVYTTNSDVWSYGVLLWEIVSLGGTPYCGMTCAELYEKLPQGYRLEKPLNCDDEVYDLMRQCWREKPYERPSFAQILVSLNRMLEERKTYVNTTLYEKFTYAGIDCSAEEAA
456 kinases (of these 395 non-mutant kinases) (Homo sapiens, UniProt P36894), sequence (P36894 24-532 limits assumed, change not shown): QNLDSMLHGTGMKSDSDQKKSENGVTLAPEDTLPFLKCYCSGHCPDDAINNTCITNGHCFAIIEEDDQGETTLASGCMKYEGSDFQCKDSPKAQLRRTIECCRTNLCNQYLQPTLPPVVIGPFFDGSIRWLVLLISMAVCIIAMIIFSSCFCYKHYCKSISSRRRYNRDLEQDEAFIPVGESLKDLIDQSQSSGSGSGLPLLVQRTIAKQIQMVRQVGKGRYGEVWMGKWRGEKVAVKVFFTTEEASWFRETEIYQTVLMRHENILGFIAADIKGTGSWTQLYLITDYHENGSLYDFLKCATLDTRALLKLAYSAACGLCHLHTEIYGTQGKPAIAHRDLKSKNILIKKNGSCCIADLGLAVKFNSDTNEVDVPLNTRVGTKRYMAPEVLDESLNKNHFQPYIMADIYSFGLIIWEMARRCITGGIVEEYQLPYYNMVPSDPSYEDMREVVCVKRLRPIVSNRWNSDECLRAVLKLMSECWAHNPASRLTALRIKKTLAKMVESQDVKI
456 kinases (of these 395 non-mutant kinases) (Homo sapiens, UniProt Q05397), sequence (Q05397 2-1052 limits assumed, change not shown): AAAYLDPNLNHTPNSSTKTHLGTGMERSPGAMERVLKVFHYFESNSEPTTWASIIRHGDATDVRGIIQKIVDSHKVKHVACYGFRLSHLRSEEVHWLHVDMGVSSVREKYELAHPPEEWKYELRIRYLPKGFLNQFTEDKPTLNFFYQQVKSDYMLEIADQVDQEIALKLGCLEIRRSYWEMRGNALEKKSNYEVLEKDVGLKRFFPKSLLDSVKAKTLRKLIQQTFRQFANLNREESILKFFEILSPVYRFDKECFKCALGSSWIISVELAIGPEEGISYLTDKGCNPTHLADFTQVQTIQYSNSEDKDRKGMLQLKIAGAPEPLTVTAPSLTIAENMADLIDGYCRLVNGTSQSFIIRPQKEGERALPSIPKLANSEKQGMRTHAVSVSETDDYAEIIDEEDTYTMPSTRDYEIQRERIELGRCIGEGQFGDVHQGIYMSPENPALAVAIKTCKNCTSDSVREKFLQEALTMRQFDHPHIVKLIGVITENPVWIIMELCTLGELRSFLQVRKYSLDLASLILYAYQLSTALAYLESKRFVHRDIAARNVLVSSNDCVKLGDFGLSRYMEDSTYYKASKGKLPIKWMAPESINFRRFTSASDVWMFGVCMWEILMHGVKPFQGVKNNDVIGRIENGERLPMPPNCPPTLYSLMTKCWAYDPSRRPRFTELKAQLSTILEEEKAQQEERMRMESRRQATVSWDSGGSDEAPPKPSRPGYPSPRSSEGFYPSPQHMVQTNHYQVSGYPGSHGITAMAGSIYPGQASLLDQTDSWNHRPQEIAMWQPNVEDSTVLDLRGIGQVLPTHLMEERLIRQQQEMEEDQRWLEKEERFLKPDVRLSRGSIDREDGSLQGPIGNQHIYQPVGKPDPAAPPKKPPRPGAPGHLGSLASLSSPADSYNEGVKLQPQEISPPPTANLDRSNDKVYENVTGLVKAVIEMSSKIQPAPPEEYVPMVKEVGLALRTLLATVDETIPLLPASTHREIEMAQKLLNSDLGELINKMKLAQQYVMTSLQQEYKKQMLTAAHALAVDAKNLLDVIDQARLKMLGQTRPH

Which “% Ctrl @ 10 μM” value [1] does the source give for `CCc1ccccc1NC(=O)c1c(C)nsc1Nc1cnc2cc(F)ccc2n1` [Example 20, N-(2-Ethylphenyl)-5-[(6-fluoroquinoxalin-2-yl)amino]-3-methyl-1,2-thiazole-4-carboxamide] here?
The value was 95 % Ctrl.

What about the “% Ctrl @ 10 μM” value [2] of the same compound?
Its value is 80 % Ctrl.

What about the “% Ctrl @ 10 μM” value [3] of the same compound?
The value was 86 % Ctrl.

What about the “% Ctrl @ 10 μM” value [4] of the same compound?
Its value is 93 % Ctrl.

What about the “% Ctrl @ 10 μM” value [5] of the same compound?
The value was 97 % Ctrl.

And the “% Ctrl @ 10 μM” value ([6]; ABL1-nonphosphorylated)?
The value was 100 % Ctrl.

What about the “% Ctrl @ 10 μM” value ([6]; ABL1-phosphorylated) of the same compound?
Its value is 100 % Ctrl.

What about the “% Ctrl @ 10 μM” value [7] of the same compound?
Its value is 95 % Ctrl.

What about the “% Ctrl @ 10 μM” value [8] of the same compound?
The value was 57 % Ctrl.

What about the “% Ctrl @ 10 μM” value [9] of the same compound?
The value was 100 % Ctrl.

What about the “% Ctrl @ 10 μM” value [10] of the same compound?
Its value is 100 % Ctrl.

And the “% Ctrl @ 10 μM” value [11]?
The value was 95 % Ctrl.

What about the “% Ctrl @ 10 μM” value [12] of the same compound?
The value was 100 % Ctrl.

What about the “% Ctrl @ 10 μM” value [13] of the same compound?
The value was 90 % Ctrl.

And the “% Ctrl @ 10 μM” value [14]?
The value was 100 % Ctrl.

And the “% Ctrl @ 10 μM” value [15]?
The value was 100 % Ctrl.

And the “% Ctrl @ 10 μM” value [16]?
Its value is 95 % Ctrl.

What about the “% Ctrl @ 10 μM” value [17] of the same compound?
Its value is 82 % Ctrl.

And the “% Ctrl @ 10 μM” value [18]?
The value was 95 % Ctrl.

What about the “% Ctrl @ 10 μM” value [19] of the same compound?
Its value is 100 % Ctrl.

And the “% Ctrl @ 10 μM” value [20]?
The value was 100 % Ctrl.

What about the “% Ctrl @ 10 μM” value [21] of the same compound?
The value was 76 % Ctrl.

And the “% Ctrl @ 10 μM” value [22]?
The value was 94 % Ctrl.

And the “% Ctrl @ 10 μM” value [23]?
The value was 79 % Ctrl.

And the “% Ctrl @ 10 μM” value [24]?
Its value is 55 % Ctrl.

What about the “% Ctrl @ 10 μM” value [25] of the same compound?
The value was 78 % Ctrl.

And the “% Ctrl @ 10 μM” value [26]?
Its value is 100 % Ctrl.

What about the “% Ctrl @ 10 μM” value [27] of the same compound?
Its value is 100 % Ctrl.

What about the “% Ctrl @ 10 μM” value [28] of the same compound?
Its value is 100 % Ctrl.

And the “% Ctrl @ 10 μM” value [29]?
The value was 100 % Ctrl.

And the “% Ctrl @ 10 μM” value [30]?
Its value is 86 % Ctrl.

What about the “% Ctrl @ 10 μM” value [31] of the same compound?
Its value is 100 % Ctrl.

And the “% Ctrl @ 10 μM” value [32]?
Its value is 83 % Ctrl.

Reference: patent publication US9682995B2, “Amino-substituted isothiazoles” (BAYER PHARMA AKTIENGESELLSCHAFT, priority 2013, dated 2017)
